Test results taken from the NIST ThermoML archive (doi:10.1021/je050052+).

Experiment: excess molar enthalpy (molar enthalpy of mixing); xn = mol fraction of the nth substance listed
Conditions: Liquid, Flow calorimetry

COC(=O)OC [dimethyl carbonate] + CCO
Conditions	excess molar enthalpy [kcal/mol]
298.15 K, 1000 kPa, x1 = 0.05	0.1012
298.15 K, 1000 kPa, x1 = 0.1	0.1881
298.15 K, 1000 kPa, x1 = 0.15	0.2526
298.15 K, 1000 kPa, x1 = 0.2	0.3048
298.15 K, 1000 kPa, x1 = 0.25	0.3456
298.15 K, 1000 kPa, x1 = 0.3	0.3728
298.15 K, 1000 kPa, x1 = 0.35	0.3921
298.15 K, 1000 kPa, x1 = 0.4	0.4023
298.15 K, 1000 kPa, x1 = 0.45	0.4067
298.15 K, 1000 kPa, x1 = 0.5	0.4047
298.15 K, 1000 kPa, x1 = 0.55	0.3955
298.15 K, 1000 kPa, x1 = 0.6	0.3776
298.15 K, 1000 kPa, x1 = 0.65	0.3579
298.15 K, 1000 kPa, x1 = 0.7	0.3311
298.15 K, 1000 kPa, x1 = 0.75	0.2963
298.15 K, 1000 kPa, x1 = 0.8	0.2542
298.15 K, 1000 kPa, x1 = 0.85	0.2024
313.15 K, 100 kPa, x1 = 0.0521	0.0984
313.15 K, 100 kPa, x1 = 0.098	0.1854
313.15 K, 100 kPa, x1 = 0.1514	0.2672
313.15 K, 100 kPa, x1 = 0.1988	0.3216
313.15 K, 100 kPa, x1 = 0.2488	0.3685
313.15 K, 100 kPa, x1 = 0.3012	0.4033
313.15 K, 100 kPa, x1 = 0.3519	0.4273
313.15 K, 100 kPa, x1 = 0.4008	0.4431
313.15 K, 100 kPa, x1 = 0.4516	0.447
313.15 K, 100 kPa, x1 = 0.5007	0.4465
313.15 K, 100 kPa, x1 = 0.5515	0.4379
313.15 K, 100 kPa, x1 = 0.6003	0.4197
313.15 K, 100 kPa, x1 = 0.6506	0.3969
313.15 K, 100 kPa, x1 = 0.699	0.3683
313.15 K, 100 kPa, x1 = 0.7513	0.3253
313.15 K, 100 kPa, x1 = 0.7987	0.2835
313.15 K, 100 kPa, x1 = 0.8497	0.2287
313.15 K, 100 kPa, x1 = 0.9012	0.1572
313.15 K, 100 kPa, x1 = 0.9504	0.0808
313.15 K, 1000 kPa, x1 = 0.052	0.1039
313.15 K, 1000 kPa, x1 = 0.0979	0.1898
313.15 K, 1000 kPa, x1 = 0.1513	0.2697
313.15 K, 1000 kPa, x1 = 0.1986	0.3254
313.15 K, 1000 kPa, x1 = 0.2487	0.3721
313.15 K, 1000 kPa, x1 = 0.3011	0.4066
313.15 K, 1000 kPa, x1 = 0.3517	0.4296
313.15 K, 1000 kPa, x1 = 0.4006	0.4435
313.15 K, 1000 kPa, x1 = 0.4515	0.4496
313.15 K, 1000 kPa, x1 = 0.5006	0.4474
